Measurements reported in ChEMBL document CHEMBL3352227, “Synthesis, antimycobacterial and antibacterial evaluation of l-[(1R, 2S)-2-fluorocyclopropyl]fluoroquinolone derivatives containing an oxime functional moiety” (Eur J Med Chem, 2014).
In brackets after ≈: the same amount, converted by molar mass.

Tests used:
Assay type in all cases: functional
[1] = tested on: Mycobacterium tuberculosis; experiment: Antimycobacterial activity against Mycobacterium tuberculosis H37Rv ATCC 27294 by MABA method
Escherichia coli [2] = experiment: Antibacterial activity against Escherichia coli ATCC 25922 after 18 to 24 hrs by standard twofold serial dilution method
Escherichia coli [3] = experiment: Antibacterial activity against Escherichia coli 12-1 after 18 to 24 hrs by standard twofold serial dilution method
Escherichia coli [4] = experiment: Antibacterial activity against extended-spectrum beta-lactamase producing Escherichia coli 12-2 after 18 to 24 hrs by standard twofold serial dilution method
Escherichia coli [5] = experiment: Antibacterial activity against extended-spectrum beta-lactamase producing Escherichia coli 12-3 after 18 to 24 hrs by standard twofold serial dilution method
Escherichia coli [6] = experiment: Antibacterial activity against extended-spectrum beta-lactamase producing Escherichia coli 12-14 after 18 to 24 hrs by standard twofold serial dilution method
Escherichia coli [7] = experiment: Antibacterial activity against extended-spectrum beta-lactamase producing Escherichia coli 12-15 after 18 to 24 hrs by standard twofold serial dilution method
Klebsiella pneumoniae [8] = experiment: Antibacterial activity against Klebsiella pneumoniae 12-1 after 18 to 24 hrs by standard twofold serial dilution method
Klebsiella pneumoniae [9] = experiment: Antibacterial activity against Klebsiella pneumoniae 12-2 after 18 to 24 hrs by standard twofold serial dilution method
Klebsiella pneumoniae [10] = experiment: Antibacterial activity against Klebsiella pneumoniae 12-4 after 18 to 24 hrs by standard twofold serial dilution method
Klebsiella pneumoniae [11] = experiment: Antibacterial activity against extended-spectrum beta-lactamase producin Klebsiella pneumoniae 12-3 after 18 to 24 hrs by standard twofold serial dilution method
Klebsiella pneumoniae [12] = experiment: Antibacterial activity against extended-spectrum beta-lactamase producin Klebsiella pneumoniae 12-4 after 18 to 24 hrs by standard twofold serial dilution method
Klebsiella pneumoniae [13] = experiment: Antibacterial activity against extended-spectrum beta-lactamase producin Klebsiella pneumoniae 12-7 after 18 to 24 hrs by standard twofold serial dilution method
Klebsiella pneumoniae [14] = experiment: Antibacterial activity against extended-spectrum beta-lactamase producin Klebsiella pneumoniae 12-14 after 18 to 24 hrs by standard twofold serial dilution method
Pseudomonas aeruginosa [15] = experiment: Antibacterial activity against Pseudomonas aeruginosa 12-12 after 18 to 24 hrs by standard twofold serial dilution method
Pseudomonas aeruginosa [16] = experiment: Antibacterial activity against Pseudomonas aeruginosa 12-14 after 18 to 24 hrs by standard twofold serial dilution method
Staphylococcus aureus [17] = experiment: Antibacterial activity against Staphylococcus aureus ATCC 25923 after 18 to 24 hrs by standard twofold serial dilution method
Staphylococcus aureus [18] = experiment: Antibacterial activity against methicillin-sensitive Staphylococcus aureus 12-1 after 18 to 24 hrs by standard twofold serial dilution method
Staphylococcus aureus [19] = experiment: Antibacterial activity against methicillin-sensitive Staphylococcus aureus 12-2 after 18 to 24 hrs by standard twofold serial dilution method
Staphylococcus aureus [20] = experiment: Antibacterial activity against methicillin-sensitive Staphylococcus aureus 12-4 after 18 to 24 hrs by standard twofold serial dilution method
Staphylococcus aureus [21] = experiment: Antibacterial activity against methicillin-sensitive Staphylococcus aureus 12-5 after 18 to 24 hrs by standard twofold serial dilution method
Staphylococcus aureus [22] = experiment: Antibacterial activity against methicillin-resistant Staphylococcus aureus 12-2 after 18 to 24 hrs by standard twofold serial dilution method
Staphylococcus aureus [23] = experiment: Antibacterial activity against methicillin-resistant Staphylococcus aureus 12-4 after 18 to 24 hrs by standard twofold serial dilution method
Staphylococcus aureus [24] = experiment: Antibacterial activity against methicillin-resistant Staphylococcus aureus 12-5 after 18 to 24 hrs by standard twofold serial dilution method
[25] = tested on: Staphylococcus epidermidis; experiment: Antibacterial activity against methicillin-sensitive Staphylococcus epidermidis 12-1 after 18 to 24 hrs by standard twofold serial dilution method
[26] = tested on: Staphylococcus epidermidis; experiment: Antibacterial activity against methicillin-sensitive Staphylococcus epidermidis 12-3 after 18 to 24 hrs by standard twofold serial dilution method
[27] = tested on: Staphylococcus epidermidis; experiment: Antibacterial activity against methicillin-sensitive Staphylococcus epidermidis 12-6 after 18 to 24 hrs by standard twofold serial dilution method
[28] = tested on: Staphylococcus epidermidis; experiment: Antibacterial activity against methicillin-sensitive Staphylococcus epidermidis 12-8 after 18 to 24 hrs by standard twofold serial dilution method
[29] = tested on: Staphylococcus epidermidis; experiment: Antibacterial activity against methicillin-resistant Staphylococcus epidermidis 12-1 after 18 to 24 hrs by standard twofold serial dilution method
[30] = tested on: Staphylococcus epidermidis; experiment: Antibacterial activity against methicillin-resistant Staphylococcus epidermidis 12-6 after 18 to 24 hrs by standard twofold serial dilution method
Streptococcus pneumoniae [31] = experiment: Antibacterial activity against Streptococcus pneumoniae ATCC 49619 after 18 to 24 hrs by standard twofold serial dilution method
Streptococcus pneumoniae [32] = experiment: Antibacterial activity against Streptococcus pneumoniae 12-18 after 18 to 24 hrs by standard twofold serial dilution method

Compound	MIC [1]	MIC (Escherichia coli [2])	MIC (Escherichia coli [3])	MIC (Escherichia coli [4])	MIC (Escherichia coli [5])	MIC (Escherichia coli [6])	MIC (Escherichia coli [7])	MIC (Klebsiella pneumoniae [8])	MIC (Klebsiella pneumoniae [9])	MIC (Klebsiella pneumoniae [10])	MIC (Klebsiella pneumoniae [11])	MIC (Klebsiella pneumoniae [12])	MIC (Klebsiella pneumoniae [13])	MIC (Klebsiella pneumoniae [14])	MIC (Pseudomonas aeruginosa [15])	MIC (Pseudomonas aeruginosa [16])	MIC (Staphylococcus aureus [17])	MIC (Staphylococcus aureus [18])	MIC (Staphylococcus aureus [19])	MIC (Staphylococcus aureus [20])	other results
NC[C@@H]1/C(=N\OCc2ccccc2)CN1c1nc2c(cc1F)c(=O)c(C(=O)O)cn2[C@@H]1C[C@@H]1F	2 µg/mL (≈ 4.26 µM)	0.5 µg/mL (≈ 1.07 µM)	4 µg/mL (≈ 8.52 µM)	> 128 µg/mL	16 µg/mL (≈ 34.1 µM)	> 128 µg/mL	> 128 µg/mL	1 µg/mL (≈ 2.13 µM)	1 µg/mL (≈ 2.13 µM)	1 µg/mL (≈ 2.13 µM)	> 128 µg/mL	32 µg/mL (≈ 68.2 µM)	8 µg/mL (≈ 17 µM)	128 µg/mL (≈ 273 µM)	8 µg/mL (≈ 17 µM)	128 µg/mL (≈ 273 µM)	0.5 µg/mL (≈ 1.07 µM)	0.5 µg/mL (≈ 1.07 µM)	0.25 µg/mL (≈ 0.533 µM)	0.25 µg/mL (≈ 0.533 µM)	MIC (Staphylococcus aureus [21]): 0.25 µg/mL (≈ 0.533 µM); MIC (Staphylococcus aureus [22]): 128 µg/mL (≈ 273 µM); MIC (Staphylococcus aureus [23]): 128 µg/mL (≈ 273 µM); MIC (Staphylococcus aureus [24]): 128 µg/mL (≈ 273 µM); MIC [25]: 0.5 µg/mL (≈ 1.07 µM); MIC [26]: 1 µg/mL (≈ 2.13 µM); MIC [27]: 0.5 µg/mL (≈ 1.07 µM); MIC [28]: 32 µg/mL (≈ 68.2 µM); MIC [29]: 32 µg/mL (≈ 68.2 µM); MIC [30]: 32 µg/mL (≈ 68.2 µM); MIC (Streptococcus pneumoniae [31]): 1 µg/mL (≈ 2.13 µM); MIC (Streptococcus pneumoniae [32]): 4 µg/mL (≈ 8.52 µM)
CCO/N=C1/CN(c2cc3c(cc2F)c(=O)c(C(=O)O)cn3[C@@H]2C[C@@H]2F)[C@@H]1CN	2 µg/mL (≈ 4.92 µM)	0.06 µg/mL (≈ 0.148 µM)	0.25 µg/mL (≈ 0.615 µM)	128 µg/mL (≈ 315 µM)	16 µg/mL (≈ 39.4 µM)	64 µg/mL (≈ 157 µM)	> 128 µg/mL	0.25 µg/mL (≈ 0.615 µM)	0.25 µg/mL (≈ 0.615 µM)	0.25 µg/mL (≈ 0.615 µM)	64 µg/mL (≈ 157 µM)	16 µg/mL (≈ 39.4 µM)	1 µg/mL (≈ 2.46 µM)	64 µg/mL (≈ 157 µM)	1 µg/mL (≈ 2.46 µM)	32 µg/mL (≈ 78.7 µM)	< 0.008 µg/mL	0.06 µg/mL (≈ 0.148 µM)	0.06 µg/mL (≈ 0.148 µM)	0.03 µg/mL (≈ 0.0738 µM)	MIC (Staphylococcus aureus [21]): 0.03 µg/mL (≈ 0.0738 µM); MIC (Staphylococcus aureus [22]): 32 µg/mL (≈ 78.7 µM); MIC (Staphylococcus aureus [23]): 32 µg/mL (≈ 78.7 µM); MIC (Staphylococcus aureus [24]): 32 µg/mL (≈ 78.7 µM); MIC [25]: 0.06 µg/mL (≈ 0.148 µM); MIC [26]: 0.125 µg/mL (≈ 0.308 µM); MIC [27]: 0.06 µg/mL (≈ 0.148 µM); MIC [28]: 4 µg/mL (≈ 9.84 µM); MIC [29]: 8 µg/mL (≈ 19.7 µM); MIC [30]: 64 µg/mL (≈ 157 µM); MIC (Streptococcus pneumoniae [31]): 0.25 µg/mL (≈ 0.615 µM); MIC (Streptococcus pneumoniae [32]): 1 µg/mL (≈ 2.46 µM)
